According to patent US20260137697A1, “THIAZOLO[5,4-D]PYRIMIDINE COMPOUNDS, COMPOSITIONS COMPRISING THEM AND USES THEREOF” (University de Montreal, priority 2022, published 2026):
Like-named read-outs stand apart in the source and are kept apart here.

Key:
Format in all cases: cell-based, human
[1] = test system: pERK, NCI-H358 cells; assay: Phospho-ERK inhibition, AlphaLISA p-ERK 1/2, NCI-H358; conditions: Table D-2; for IC50: NCI-H358 (KRAS-G12C); for pERK value in parentheses, % inhibition (Ymin): NCI-H358, lowest point of IC50 curve
Method: (§1) All cancer cell lines (A375, A101D, A2058, RKO, HT29 SK-MEL 30, IPC298, HepG2, HCT-116, Lovo, SW620, SW480, NCI-H358, NCI-H2122, Calu-6, NCIH2087, NCIH1755, NCIH1666 and Mewo) were obtained from ATCC and cultured in RPM1-1640 medium (Gibco) supplemented with 5% heat inactivated fetal bovine serum (FBS, Wisent) at 37° C. under 5% CO2. Cells were maintained in T175 flasks (Greiner). They were passaged by removing the culture medium, washing once in 10 mL of room temperature Phosphate Buffered Saline (PBS; Wisent) and incubating at 37° C. with 2 mL of 0.05% Trypsin (Thermo-Fisher). Trypsin was then inactivated by adding complete growth medium and the cells were then replated in a T175 culture dish at the appropriate dilution. All cell lines were routinely tested for mycoplasma contamination. Tissue type and mutational status of each cell line can be found in Table B.
(§2) (c) Measurement of Phospho-ERK Inhibition in Cultivated Human Cancer Cell Lines by the AlphaLISA® SureFire® Ultra™ p-ERK 1/2 (Thr2O2/Tyr204)
(§3) AlphaLISA® SureFire® Ultra™ p-ERK 1/2 (Thr202/Tyr204) analysis was conducted on cells plated in 100 μL of complete RPMI-1640 growth medium in 96-well flat-bottomed transparent dishes (Costar) at a density indicated in Table C. Cells were maintained overnight at 37° C. under 5% CO2 before treatment with compounds' dilution series for one hour. The cell density in cells/cm^2 corresponds to cell number divided by the area of one well of a 96-well plate (0.143 cm^2).
(§4) In a dilution series 100 μL/well of test substance dilution prepared in complete RPMI-1640 growth media was added to the cells. The dilution series is selected so that ten concentrations cover a range from 10 μM to 0.33 nM. If necessary, the initial concentration of 10 μM is increased to 100 μM or lowered to 1 μM (as in the case of A375 and H1666 cells, which are generally more sensitive to the compounds) and further dilution is carried out accordingly. The final concentration of DMSO in the assay is set at 0.5%.
(§5) After treatment, media was removed, and cells were lysed in 50 μL of 1× AlphaScreen Ultra Lysis Buffer (Perkin Elmer). The AlphaLISA® SureFire® Ultra™ p-ERK 1/2 (Thr202/Tyr204) (PerkinElmer) reactions were performed with 5 μL of cell lysate according to the manufacturer's specifications in 384-well proxyplates (Perkin Elmer) followed by overnight incubation of the reactions at room temperature in a humidified chamber. After completion of the reactions, the signals were recorded on an EnVision plate reader (Perkin Elmer) using built in AlphaLISA® settings.
(§6) The effect of each compound dilution on the pERK signal was expressed in % inhibition and calculated as follows. An internal 100% inhibition control (1 μM trametinib, cat. No. HY-10999; MedChem Express; CAS No. 871700-17-3) was included in each plate and used as a measure of pERK background. First, the value obtained for trametinib was subtracted from each data point. The average of DMSO (vehicle) controls (set as 0% inhibition) was established and used to calculate % inhibition:
(§7) The ability of each compound to inhibit pERK signal was expressed as an IC50 value obtained by plotting the inhibition values for each data point of a dilution series and fitting the obtained curves using a log(agonist) versus response—variable slope (four parameters) function using GraphPadPrism (V7.0) or Dotmatics Screening Ultra platform.
(§8) When present, paradoxical pERK induction is inferred from the negative % inhibition values observed in the pERK IC50 curves of a compound.

[2] = test system: SW620 cells; assay: Proliferation inhibition, CellTiter-Glo, SW620; conditions: Table D-2, SW620 (KRAS-G12V), 3 days, read-out: Prolif. (proliferation EC50)
Method: as §1
CellTiter-Glo® viability analysis was conducted on cells plated in 100 μL of complete RPMI-1640 growth medium in 96-well flat-bottomed white opaque plates (Greiner or Croning) at a density indicated in Table E (for each CCL, number of cells plated per well of a 96-well plate to perform the CellTiter-Glo® cell viability assay). The cell density in cells/cm^2 would correspond to cell number divided by the area of one well of a 96-well plate (0.32 cm^2). […]
(§9) After 3 days of incubation, the growth media were removed by aspiration and 60 μL of diluted CellTiter-Glo® reagent (10 μL CellTiter-Glo® reagent+50 μL of PBS) was added to each well. […] Luminescence signals were then acquired on a Synergy Neo2 plate reader (Biotek).
(§10) The effect of each compound dilution on the proliferation of cancer cell lines was expressed in % inhibition and calculated as follows. […]
as §7, with “proliferation” for “pERK signal”, “a EC50” for “an IC50”, “effect” for “inhibition”

[3] = test system: A2058 cells; assay: Proliferation inhibition, CellTiter-Glo, A2058; conditions: Table D-1; A2058 (BRAF V600E), 3 days; read-out: Prolif. (proliferation EC50)
Method: as §1, with “Trypsin was then inactivated by adding complete growth medium and the cells were then replated in a T175 culture dish at the appropriate dilution. All cell lines were routinely tested for mycoplasma contamination. Tissue type and mutational status of each cell line can be found in Table B.” left out
as §9, §10
as §7, with “proliferation” for “pERK signal”, “a EC50” for “an IC50”, “effect” for “inhibition”

[4] = test system: pERK, HCT116 cells; assay: Phospho-ERK inhibition, AlphaLISA p-ERK 1/2, HCT-116; conditions: Table 3; for IC50: HCT116 cells (KRAS G13D), 1 h treatment; for HCT116 pERK (Ymin %): lowest % inhibition value of the pERK IC50 curve, above −20% = no paradoxical induction
Procedure, shortened: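 Cells in RPMI-1640 with 5% FBS plated overnight, then treated 1 h with ten-point dilutions (10 μM to 0.33 nM, 0.5% DMSO). Lysate p-ERK1/2 (Thr202/Tyr204) read by AlphaLISA SureFire Ultra; % inhibition normalised to DMSO and 1 μM trametinib background, IC50 by four-parameter fit.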

[5] = test system: pERK, NCIH2087 cells; assay: Phospho-ERK inhibition, AlphaLISA p-ERK 1/2, NCIH2087; conditions: Table D-2; for IC50: NCIH2087 (BRAF L597V; KRAS Q61K); for pERK value in parentheses, % inhibition (Ymin): NCIH2087, lowest point of IC50 curve
Method: as §1, §2, §3, §4, §5, §6, §7, §8

## N#CC1(c2cccc3c2ncn3-c2nc3c(Nc4c(F)ccc(NS(=O)(=O)c5cccc(Cl)c5Cl)c4F)ncnc3s2)CC1 [Example 122]
[1]
  IC50: 30 to 300 nM
  pERK value in parentheses, % inhibition (Ymin): (−3) %
[2]
  EC50: < 300 nM
[3]
  EC50: < 300 nM
[4]
  IC50: < 500 nM
  HCT116 pERK (Ymin %): 2%
[5]
  IC50: < 30 nM
  pERK value in parentheses, % inhibition (Ymin): 4%

## Cc1ccc2c(Nc3cccc(Cl)c3F)nccc2c1NC(=O)c1csc2c(N)ncnc12 [Belvarafenib, reference compound]
[1]; Homo sapiens
  IC50: 30 to 300 nM
[1]
  pERK value in parentheses, % inhibition (Ymin): (−122) %
[2]; Homo sapiens, SW-620, 72 h
  EC50: 300 to 3000 nM
[5]; Homo sapiens, NCI-H2087
  IC50: < 30 nM
[5]
  pERK value in parentheses, % inhibition (Ymin): 6%

## Cc1c(F)cccc1S(=O)(=O)Nc1ccc(F)c(Nc2ncnc3sc(-n4cc(C(=O)N5C6CCC5CN(C)C6)c5ccccc54)nc23)c1F [Example 44]
[1]
  IC50: 30 to 300 nM
  pERK value in parentheses, % inhibition (Ymin): (1) %
[2]
  EC50: < 300 nM
[3]
  EC50: < 300 nM
[4]
  IC50: < 500 nM
  HCT116 pERK (Ymin %): 3%
[5]
  IC50: < 30 nM
  pERK value in parentheses, % inhibition (Ymin): 4%
